Data reported in article PMC12336439 (Archiv Der Pharmazie, 2025).
Where “and” joins values, the source holds several entries; their conditions need not be identical. Identical values can stand only once. Like-named read-outs stand apart in the source and are kept apart here.

How the values were obtained:
USP7 = biological target: T1, USP7 (Homo sapiens, UniProt Q93009); test: Differential scanning fluorimetry (DSF), melting temperature shift of USP7; type: binding; details: 8 µM protein, 250 µM compound (1:31.25)
T1 construct: USP7 catalytic domain (USP7CD) (208‐560); made in house
T1 sequence (Q93009 with tags, fused parts or gaps): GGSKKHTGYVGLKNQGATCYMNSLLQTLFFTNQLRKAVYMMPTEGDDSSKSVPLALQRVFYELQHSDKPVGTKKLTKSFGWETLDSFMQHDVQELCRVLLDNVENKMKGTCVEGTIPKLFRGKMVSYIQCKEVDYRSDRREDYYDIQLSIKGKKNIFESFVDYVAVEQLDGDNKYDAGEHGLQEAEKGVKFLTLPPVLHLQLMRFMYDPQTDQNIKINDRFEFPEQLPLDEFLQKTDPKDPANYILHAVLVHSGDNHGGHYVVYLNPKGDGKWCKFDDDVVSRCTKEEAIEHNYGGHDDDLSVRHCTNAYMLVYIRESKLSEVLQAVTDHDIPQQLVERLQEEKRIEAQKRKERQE

[1] = biological target: T2, USP7cd (USP7 catalytic domain) (Homo sapiens, UniProt Q93009); test: Ub-AMC enzyme activity assay, IC50 determination; type: biochemical; details: 10 nM USP7cd, 500 nM Ub-AMC, 24 h pre-incubation at 20°C
T2 construct: USP7 catalytic domain (USP7CD) (208‐560); made in house
T2 sequence (Q93009 with tags, fused parts or gaps): as above
Experimental: Therefore, USP7 was incubated for 24 h with ten different compound concentrations, and IC50 values were then obtained with a fluorescent DUB substrate (Ub‐AMC) (Figure 9A–F). The pre‐incubation times were chosen to account for the slow covalent binding kinetics observed in the previous experiments.
The cleavage activity of USP7cd in the presence or absence of inhibitors was measured using Ubiquitin‐Aminomethylcoumarin (Ub‐AMC) (Enzo Life Sciences GmbH, Lörrach, Germany) as a fluorogenic substrate. The fluorescence was monitored using the CLARIOstar plate reader (BMG Labtech GmbH, Ortenberg, Germany) at 25°C at 360 nm excitation and 460 nm emission wavelengths. […] Each measurement was performed at least twice in duplicate. […] Ub‐AMC was added to a final concentration of 500 nM, and the fluorescence was measured after 1 h. The normalized dose‐response semi‐logarithmic curves were fitted using OriginPro2021 and the four‐parameter logistic function.
Different concentrations of compounds were pre-incubated with USP7 for 24 h at 20 °C in a rotating shaker in 25 mM Tris pH 8.0, 150mM NaCl, 5 mM TCEP supplemented with 0.2 mg/mL bovine serum albumin (BSA). Fluorescence was measured after 1 h of the addition of Ub-AMC. The dose response semi-logarithmic curves were fitted using OriginPro2021 and the four-parameter logistic function.

[2] = supplement table, read-out: Biological Activity (IC50)

SMILES | ∆T m ± SD USP7 (USP7; 30 min incubation at 20°C) | ∆T m ± SD USP7 (USP7; 4 h incubation at 20°C) | ∆T m ± SD USP7 (USP7; 24 h incubation at 20°C) | IC50 ([1]; read-out: IC50 USP7cd) | IC50 [1, 2] [µM]
Cn1ccc(-c2cccc3cnc(Nc4nc(F)ccc4[N+](=O)[O-])cc23)c1 [7b, N‐(6‐Fluoro‐3‐nitropyridin‐2‐yl)‐5‐(1‐methyl‐1H‐pyrrol‐3‐yl)isoquinolin‐3‐amine] | –0.10 ± 0.09 °C | 0.00 ± 0 °C | 0.00 ± 0 °C | 56.6 µM and 57 µM | 56.6 ± 6.11
CCn1cc(-c2cccc3cnc(Nc4nc(F)ccc4[N+](=O)[O-])cc23)cn1 [7c, 5‐(1‐Ethyl‐1H‐pyrazol‐4‐yl)‐N‐(6‐fluoro‐3‐nitropyridin‐2‐yl)isoquinolin‐3‐amine] | –0.45 ± 0.12 °C | –0.45 ± 0 °C | – | 36.2 µM and 36 µM | 36.2 ± 2.21
CCCn1cc(-c2cccc3cnc(Nc4nc(F)ccc4[N+](=O)[O-])cc23)cn1 [7d, N‐(6‐Fluoro‐3‐nitropyridin‐2‐yl)‐5‐(1‐propyl‐1H‐pyrazol‐4‐yl)isoquinolin‐3‐amine] | –0.30 ± 0.06 °C | –0.18 ± 0.03 °C | – | 26.8 µM and 27 µM | 26.8 ± 7.54
O=[N+]([O-])c1ccc(F)nc1Nc1cc2c(-c3cnn(C4CC4)c3)cccc2cn1 [7e, 5‐(1‐Cyclopropyl‐1H‐pyrazol‐4‐yl)‐N‐(6‐fluoro‐3‐nitropyridin‐2‐yl)isoquinolin‐3‐amine] | –0.23 ± 0.06 °C | 0.02 ± 0.03 °C | – | 48.4 µM and 48 µM | 48.3 ± 5.68
O=[N+]([O-])c1ccc(F)nc1Nc1cc2c(-c3ccc(-c4ccncc4)cc3)cccc2cn1 [7i, N‐(6‐Fluoro‐3‐nitropyridin‐2‐yl)‐5‐[4‐(pyridin‐4‐yl)phenyl]isoquinolin‐3‐amine] | –0.13 ± 0.09 °C | –0.40 ± 0.08 °C | –0.45 ± 0.09 °C | > 1000 µM | –
